The values below come from patent US10035804B2, “Spirodiamine derivatives as aldosterone synthase inhibitors” (Hoffmann-La Roche Inc., priority 2014, dated 2018).

SMILES strings stand for the structures.

The subject of assay [1] is patients with primary aldosteronism. To be noted: oral; cited from earlier work.
Assay [2] has as its system rats with experimental heart failure. To be noted: cited from earlier work.
Assay [3] deals with rat model of chronic kidney disease. The settings on record: cited from earlier work; for cardiac and aortic medial hypertrophy / renal effects (albuminuria, azotemia, renovascular hypertrophy, glomerular injury, PAI-1 and osteopontin mRNA, tubulointerstitial fibrosis): angiotensin II and high salt treated rats.
The target in another assay is human CYP11B2 (Homo sapiens (Human), UniProt P19099). Nature of the assay: G-402 cellular enzyme assay, human CYP11B2 (aldosterone release). It is filed as cell-based. To be noted: G-402 cells expressing human CYP11B2; 1 μM Deoxycorticosterone; aldosterone in supernatant after 16 h. An excerpt: (§1) Herein we identified the use of the G-402 cell line as a host cell to ectopically express (transiently or stably) enzymes of the CYP11 family. Specifically we developed stable G-402 cells expressing ectopically human CYP11B1, human CYP11B2, human CYP11A1, cynmolgus CYP11B1 or cynomolgus CYP11B2 enzyme activity. Importantly the identified cell line G-402 expresses co-factors (adrenodoxin and adrenodoxin reductase) important for the activity of the CYP11 family and no relevant enzyme activity of the CYP11 family (in comparison to H295R cells) was detected in these cells. Therefore the G-402 cell line is uniquely suited as a host cell for the ectopic expression of enzymes from the CYP11 family.
human CYP11B2, sequence (P19099 25-503): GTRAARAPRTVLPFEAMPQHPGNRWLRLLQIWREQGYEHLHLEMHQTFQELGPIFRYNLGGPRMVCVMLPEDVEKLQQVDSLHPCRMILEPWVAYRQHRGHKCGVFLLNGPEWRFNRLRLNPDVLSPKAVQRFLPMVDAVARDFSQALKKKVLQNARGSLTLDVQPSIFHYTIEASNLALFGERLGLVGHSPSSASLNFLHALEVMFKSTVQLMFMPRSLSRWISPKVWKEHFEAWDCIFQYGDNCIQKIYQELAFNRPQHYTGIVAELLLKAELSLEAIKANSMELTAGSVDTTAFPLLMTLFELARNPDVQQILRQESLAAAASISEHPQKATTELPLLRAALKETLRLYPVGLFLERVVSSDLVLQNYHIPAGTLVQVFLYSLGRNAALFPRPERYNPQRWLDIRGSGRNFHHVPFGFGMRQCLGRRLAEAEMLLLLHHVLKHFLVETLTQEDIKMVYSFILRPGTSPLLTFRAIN
(§2) G-402 cells can be obtained from ATCC (CRL-1440) and were originally derived from a renal leiomyoblastoma.
(§3) The expression plasmids contains the ORF for either human/cyno CYP11B1 or CYP11B2 under the control of a suitable promoter (CMV-promoter) and a suitable resistance marker (neomycin). Using standard techniques the expression plasmid is transfected into G-402 cells and these cells are then selected for expressing the given resistance markers. Individual cell-clones are then selected and assessed for displaying the desired enzymatic activity using 11-Deoxycorticosterone (Cyp11B2) or 11-Deoxycortisol (Cyp11B1) as a substrate.
(§4) G-402 cells expressing CYP11 constructs were established as described above and maintained in McCoy's 5a Medium Modified, ATCC Catalog No. 30-2007 containing 10% FCS and 400 μg/ml G418 (Geneticin) at 37° C. under an atmosphere of 5% CO2/95% air. Cellular enzyme assays were performed in DMEM/F12 medium containing 2.5% charcoal treated FCS and appropriate concentration of substrate (0.3-10 uM 11-Deoxycorticosterone, 11-Deoxycortisol or Corticosterone). For assaying enzymatic activity, cells were plated onto 96 well plates and incubated for 16 h. An aliquot of the supernatant is then transferred and analyzed for the concentration of the expected product (Aldosterone for CYP11B2; Cortisol for CYP11B1). The concentrations of these steroids can be determined using HTRF assays from CisBio analyzing either Aldosterone or Cortisol.
(§5) Inhibition of the release of produced steroids can be used as a measure of the respective enzyme inhibition by test compounds added during the cellular enzyme assay. The dose dependent inhibition of enzymatic activity by a compound is calculated by means of plotting added inhibitor concentrations (x-axes) vs. measured steroid/product level (y-axes). The inhibition is then calculated by fitting the following 4-parameter sigmoidal function (Morgan-Mercer-Flodin (MMF) model) to the raw data points using the least squares method:
(§6) [formula] wherein, A is the maximum y value, B is the EC50 factor determined using XLFit, C is the minimum y value and D is the slope value.
(§7) EC50 values for compounds claimed herein were tested with the G402-based assay system described. Cyp11B2 enzyme activity was tested in presence of 1 μM Deoxycorticosterone and variable amounts of inhibitors; Cyp11B1 enzyme activity was tested in presence of 1 μM Deoxycortisol and variable amounts of inhibitors.

A further assay deals with human CYP11B1 (Homo sapiens (Human), UniProt P15538). As to the kind of experiment: G-402 cellular enzyme assay, human CYP11B1 (cortisol release). It is filed as cell-based. To be noted: G-402 cells expressing human CYP11B1; 1 μM Deoxycortisol; cortisol in supernatant after 16 h.
human CYP11B1, sequence (P15538 25-503): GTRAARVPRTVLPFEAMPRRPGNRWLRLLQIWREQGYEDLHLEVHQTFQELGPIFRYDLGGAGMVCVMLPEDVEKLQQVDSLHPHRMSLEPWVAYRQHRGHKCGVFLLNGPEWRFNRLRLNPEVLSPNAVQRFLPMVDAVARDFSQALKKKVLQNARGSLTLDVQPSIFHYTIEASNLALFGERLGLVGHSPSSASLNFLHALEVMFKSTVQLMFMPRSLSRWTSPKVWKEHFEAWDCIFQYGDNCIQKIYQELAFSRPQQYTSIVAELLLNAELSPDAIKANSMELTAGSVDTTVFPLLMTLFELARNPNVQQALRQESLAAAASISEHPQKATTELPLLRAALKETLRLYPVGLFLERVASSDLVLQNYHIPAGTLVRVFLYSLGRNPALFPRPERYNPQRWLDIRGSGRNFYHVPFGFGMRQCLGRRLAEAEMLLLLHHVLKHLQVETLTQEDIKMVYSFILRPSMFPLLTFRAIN
From the text: as §1, §2, §3, §4, §5, §6, §7

As to `N#Cc1ccc([C@H]2CCc3cncn32)c(F)c1` [LC1699], in assay [1], the blood pressure result is recorded as “mildly decreased”; the circulating aldosterone levels result is recorded as “significantly lower”; the hypokalemia result is “corrected”; the “selectivity (effects on the glucocorticoid axis, cortisol synthesis)” value was “poor selectivity”.
Turning to `N#Cc1ccc([C@H]2CCCc3cncn32)cc1` [FAD286], in assay [2], the “blood pressure and cardiovascular function and structure” value is “improved”; the “kidney function and morphology” value is listed as “improve”. Besides, in assay [3], the “cardiac and aortic medial hypertrophy” value is reported as “attenuated”; the “renal effects (albuminuria, azotemia, renovascular hypertrophy, glomerular injury, PAI-1 and osteopontin mRNA, tubulointerstitial fibrosis)” value was “prevented these renal effects”. Besides, the plasma aldosterone result in assay [3] (following 4 weeks of treatment) is recorded as “reduced”.
For the compound `Cc1nc(C(=O)N2CC3(C2)CN(c2cncc(N4C(=O)c5ccc(Cl)cc5C4(C)C)c2)C3)co1` [Example 45, 5-Chloro-3,3-dimethyl-2-[5-[2-(2-methyloxazole-4-carbonyl)-2,6-diazaspiro[3.3]heptan-6-yl]-3-pyridyl]isoindolin-1-one], the results for the EC50 on human CYP11B2 and at human CYP11B1 were 0.068 nM and 2.09 nM, respectively.
The like results for `CC1(C)c2cc(Cl)ccc2C(=O)N1c1cncc(N2CC3(CN(C(=O)c4cnccn4)C3)C2)c1` [Example 38, 5-Chloro-3,3-dimethyl-2-[5-[2-(pyrazine-2-carbonyl)-2,6-diazaspiro[3.3]heptan-6-yl]-3-pyridyl]isoindolin-1-one] were, in that order, 0.0268 nM and 2.32 nM.
For `Cn1cc(C(=O)N2CC3(C2)CN(c2cncc(N4CCc5cc(Cl)ccc5C4=O)c2)C3)cn1` [Example 53, 6-Chloro-2-[5-[2-(1-methylpyrazole-4-carbonyl)-2,6-diazaspiro[3.3]heptan-6-yl]-3-pyridyl]-3,4-dihydroisoquinolin-1-one], the EC50 (usually the concentration giving half of the maximal effect) on human CYP11B2 was 0.0459 nM; on human CYP11B1, 14.6 nM.
`Cc1cnc(C(=O)N2CC3(C2)CN(c2cncc(N4C(=O)c5ccc(Cl)cc5C4(C)C)c2)C3)nc1` [Example 34, 5-Chloro-3,3-dimethyl-2-[5-[2-(5-methylpyrimidine-2-carbonyl)-2,6-diazaspiro[3.3]heptan-6-yl]-3-pyridyl]isoindolin-1-one]: the EC50 on human CYP11B2 amounted to 0.097 nM; at human CYP11B1 it was 9.55 nM.
Taken in the same sequence, the figures for `Cc1ocnc1C(=O)N1CC2(C1)CN(c1cncc(N3C(=O)c4ccc(Cl)cc4C3(C)C)c1)C2` [Example 32, 5-Chloro-3,3-dimethyl-2-[5-[2-(5-methyloxazole-4-carbonyl)-2,6-diazaspiro[3.3]heptan-6-yl]-3-pyridyl]isoindolin-1-one] were 0.0149 nM and 5.37 nM.
As for `CC(=O)S[C@@H]1CC2=CC(=O)CC[C@]2(C)[C@H]2CC[C@@]3(C)[C@@H](CC[C@@]34CCC(=O)O4)[C@H]12` [spironolactone], in assay [3], the “cardiac and aortic medial hypertrophy” value is listed as “attenuated”; the “renal effects (albuminuria, azotemia, renovascular hypertrophy, glomerular injury, PAI-1 and osteopontin mRNA, tubulointerstitial fibrosis)” value was “prevented these renal effects”. The aldosterone result in assay [3] (at 4 and 8 weeks of treatment) is reported as “increased”. Further, the “angiotensin II and salt-stimulated PAI-1 mRNA expression” value in assay [3] (in the aorta and the heart) is on record as “enhanced”.
In the case of `Cc1ccnc(C)c1C(=O)N1CC2(C1)CN(c1cncc(N3C(=O)c4ccc(Cl)cc4C3(C)C)c1)C2` [Example 49, 5-Chloro-2-[5-[2-(2,4-dimethylpyridine-3-carbonyl)-2,6-diazaspiro[3.3]heptan-6-yl]-3-pyridyl]-3,3-dimethyl-isoindolin-1-one], the EC50 at human CYP11B2 is 0.111 nM; at human CYP11B1, 5.07 nM.
Taken in the same sequence, the figures for `CC1(C)c2cc(Cl)ccc2C(=O)N1c1cncc(N2CC3(CN(C(=O)c4cnccc4C#N)C3)C2)c1` [Example 50, 3-[6-[5-(6-Chloro-1,1-dimethyl-3-oxo-isoindolin-2-yl)-3-pyridyl]-2,6-diazaspiro[3.3]heptane-2-carbonyl]pyridine-4-carbonitrile] were 0.0248 nM and 16.8 nM.
Turning to `Cn1cc(C(=O)N2CC3(C2)CN(c2cncc(N4C(=O)c5ccc(Cl)cc5C4(C)C)c2)C3)c(C(F)F)n1` [Example 35, 5-Chloro-2-[5-[2-[3-(difluoromethyl)-1-methyl-pyrazole-4-carbonyl]-2,6-diazaspiro[3.3]heptan-6-yl]-3-pyridyl]-3,3-dimethyl-isoindolin-1-one], the EC50 at human CYP11B2 is 0.333 nM; on human CYP11B1, 29.5 nM.
The like results for `CCn1cc(C(=O)N2CC3(C2)CN(c2cncc(N4C(=O)c5ccc(C#N)cc5C4(C)C)c2)C3)cn1` [Example 9, 2-[5-[2-(1-Ethylpyrazole-4-carbonyl)-2,6-diazaspiro[3.3]heptan-6-yl]-3-pyridyl]-3,3-dimethyl-1-oxo-isoindoline-5-carbonitrile] were, in that order, 0.009 nM and 24.4 nM.
Taken in the same sequence, the figures for `Cc1cncc(C(=O)N2CC3(C2)CN(c2cncc(N4C(=O)c5ccc(Cl)cc5C4(C)C)c2)C3)n1` [Example 28, 5-Chloro-3,3-dimethyl-2-[5-[2-(6-methylpyrazine-2-carbonyl)-2,6-diazaspiro[3.3]heptan-6-yl]-3-pyridyl]isoindolin-1-one] were 0.0577 nM and 0.64 nM.
`CC1(C)c2cc(Cl)ccc2C(=O)N1c1cncc(N2CC3(CN(C(=O)c4cocn4)C3)C2)c1` [Example 42, 5-Chloro-3,3-dimethyl-2-[5-[2-(oxazole-4-carbonyl)-2,6-diazaspiro[3.3]heptan-6-yl]-3-pyridyl]isoindolin-1-one]: the EC50 on human CYP11B2 stood at 0.0102 nM; on human CYP11B1, 1.05 nM.
With `Cn1ccnc1C(=O)N1CC2(C1)CN(c1cncc(N3C(=O)c4ccc(C#N)cc4C3(C)C)c1)C2` [Example 11, 3,3-Dimethyl-2-[5-[2-(1-methylimidazole-2-carbonyl)-2,6-diazaspiro[3.3]heptan-6-yl]-3-pyridyl]-1-oxo-isoindoline-5-carbonitrile], the EC50 at human CYP11B2 stood at 0.0252 nM; at human CYP11B1, 4.76 nM.
